Source: article PMC9221192, “The Prophylactic and Multimodal Activity of Two Isatin Thiosemicarbazones against Alzheimer’s Disease In Vitro” (Brain Sciences, 2022)

Target: T1, soybean lipoxygenase (LOX) (Glycine max, UniProt P08170)
T1 construct: gene LOX1.1
T1 sequence (P08170 1-839): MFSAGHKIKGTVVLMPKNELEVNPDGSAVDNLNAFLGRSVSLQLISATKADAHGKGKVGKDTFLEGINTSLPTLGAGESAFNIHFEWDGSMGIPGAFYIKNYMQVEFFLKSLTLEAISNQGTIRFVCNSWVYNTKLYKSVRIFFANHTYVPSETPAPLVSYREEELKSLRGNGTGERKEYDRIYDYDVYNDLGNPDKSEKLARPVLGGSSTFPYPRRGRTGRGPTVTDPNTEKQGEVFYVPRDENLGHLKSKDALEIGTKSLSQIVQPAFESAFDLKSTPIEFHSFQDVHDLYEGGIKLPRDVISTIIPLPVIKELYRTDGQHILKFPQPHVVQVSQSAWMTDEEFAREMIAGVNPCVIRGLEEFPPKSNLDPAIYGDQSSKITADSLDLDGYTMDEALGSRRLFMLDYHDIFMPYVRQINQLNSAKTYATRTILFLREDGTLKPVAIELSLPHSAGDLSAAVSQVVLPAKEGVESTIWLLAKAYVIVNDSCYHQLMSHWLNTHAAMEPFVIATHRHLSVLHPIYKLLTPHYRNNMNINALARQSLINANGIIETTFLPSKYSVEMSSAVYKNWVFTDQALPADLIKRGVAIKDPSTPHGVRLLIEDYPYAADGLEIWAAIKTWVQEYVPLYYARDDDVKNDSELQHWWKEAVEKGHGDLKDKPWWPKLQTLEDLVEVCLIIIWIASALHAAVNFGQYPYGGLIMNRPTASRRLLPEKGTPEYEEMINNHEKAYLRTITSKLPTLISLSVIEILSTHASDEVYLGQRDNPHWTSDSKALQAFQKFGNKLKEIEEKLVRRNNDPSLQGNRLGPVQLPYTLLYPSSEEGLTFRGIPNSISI
Test: UV assay at […] nm, sodium linoleate oxidation, pH […]
Type: biochemical

Row | Structure (SMILES) | IC50 [µM]
1 | COc1ccc2c(c1)/C(=N/NC(=S)Nc1ccccc1)C(=O)N2 [M] | 60.5
2 | O=C1C(=NNC(=S)Nc2ccccc2)c2cc(F)ccc2N1CN1CCCCC1 [FMp] | 54
